According to patent US9656988B2 (Pharmacyclics LLC, priority 2013, dated 2017):
Read-outs that look alike come from different tables or passages of the source.

Target: BTK (Homo sapiens (Human), UniProt Q06187)
Experiment: Btk in vitro inhibitory activity (one of Method A TR-FRET, Method B electrophoretic mobility shift, Method C radiometric filter binding)
Type: biochemical
[1] = determined using one of the methods of Example 355a, 355b and 355c, read-out: BTK IC50

Sequence of BTK (Q06187 whole entry): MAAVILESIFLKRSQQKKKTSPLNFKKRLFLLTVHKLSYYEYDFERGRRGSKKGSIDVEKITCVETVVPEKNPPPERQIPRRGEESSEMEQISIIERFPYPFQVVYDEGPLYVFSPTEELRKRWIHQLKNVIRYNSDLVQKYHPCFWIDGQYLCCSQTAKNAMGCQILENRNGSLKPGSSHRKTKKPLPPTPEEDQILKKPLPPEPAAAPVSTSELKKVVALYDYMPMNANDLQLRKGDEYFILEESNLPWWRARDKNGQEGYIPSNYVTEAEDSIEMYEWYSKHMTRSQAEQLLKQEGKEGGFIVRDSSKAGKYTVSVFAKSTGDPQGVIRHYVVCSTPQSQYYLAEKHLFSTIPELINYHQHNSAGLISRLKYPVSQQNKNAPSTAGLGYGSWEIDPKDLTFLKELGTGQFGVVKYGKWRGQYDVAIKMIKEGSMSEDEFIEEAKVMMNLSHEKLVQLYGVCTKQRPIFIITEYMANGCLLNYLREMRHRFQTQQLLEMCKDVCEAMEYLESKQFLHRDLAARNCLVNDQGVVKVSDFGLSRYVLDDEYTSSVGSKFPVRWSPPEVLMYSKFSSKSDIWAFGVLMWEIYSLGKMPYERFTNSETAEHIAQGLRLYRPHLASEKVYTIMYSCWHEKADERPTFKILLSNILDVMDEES

Structure (SMILES)	IC50 [1] [nM]	IC50 (Btk (IC50)) [nM]	IC50 (read-out: Btk (IC50)) [nM]	IC50 [nM]
CN(C)C(=O)N[C@@H]1CCCN(c2cnc(C(N)=O)c(Nc3ccccc3)n2)C1 [Example 180, (R)-5-(3-(3,3-dimethylureido)piperidin-1-yl)-3-(phenylamino)pyrazine-2-carboxamide]	100 to 1000	–	–	–
COc1cc(Nc2nc(N3CCC[C@@H](NC(=O)N(C)C)C3)cnc2C(N)=O)ccc1Cl [Example 182, (R)-3-(4-chloro-3-methoxyphenylamino)-5-(3-(3,3-dimethylureido)piperidin-1-yl)pyrazine-2-carboxamide]	100 to 1000	100 to 1000	–	–
COc1cc(Nc2nc(N3CCC[C@@H](NC(=O)N(C)C)C3)cnc2C(N)=O)ccc1C [Example 183, (R)-5-(3-(3,3-dimethylureido)piperidin-1-yl)-3-(3-methoxy-4-methylphenylamino)pyrazine-2-carboxamide]	100 to 1000	–	–	100 to 1000
Cc1nc(Nc2nc(N3CCC[C@@H](NC(=O)N(C)C)C3)cnc2C(N)=O)ccc1F [Example 184, (R)-5-(3-(3,3-dimethylureido)piperidin-1-yl)-3-(5-fluoro-6-methylpyridin-2-ylamino)pyrazine-2-carboxamide]	1000 to 10000	–	–	100 to 1000
CN(C)C(=O)N[C@@H]1CCCN(c2cnc(C(N)=O)c(Nc3ccn(C)c(=O)c3)n2)C1 [Example 185, (R)-5-(3-(3,3-dimethylureido)piperidin-1-yl)-3-(1-methyl-2-oxo-1,2-dihydropyridin-4-ylamino)pyrazine-2-carboxamide]	100 to 1000	100 to 1000	–	–
CN(C)C(=O)N[C@@H]1CCCN(c2cnc(C(N)=O)c(Nc3ccc(=O)n(C)c3)n2)C1 [Example 186, (R)-5-(3-(3,3-dimethylureido)piperidin-1-yl)-3-(1-methyl-6-oxo-1,6-dihydropyridin-3-ylamino)pyrazine-2-carboxamide]	10 to 100	10 to 100	–	–
Cc1cc(Nc2nc(N3CCC[C@@H](NC(=O)N(C)C)C3)cnc2C(N)=O)sn1 [Example 187, (R)-5-(3-(3,3-dimethylureido)piperidin-1-yl)-3-(3-methylisothiazol-5-ylamino)pyrazine-2-carboxamide]	10 to 100	10 to 100	–	–
CN(C)CCOc1ccc(Nc2nc(N3CCC[C@@H](NC(=O)N(C)C)C3)cnc2C(N)=O)cc1 [Example 191, (R)-3-(4-(2-(dimethylamino)ethoxy)phenylamino)-5-(3-(3,3-dimethylureido)piperidin-1-yl)pyrazine-2-carboxamide]	10 to 100	10 to 100	–	–
CN(C)C(=O)N[C@@H]1CCCN(c2cnc(C(N)=O)c(Nc3ccc(C(=O)N4CCCC4)cc3)n2)C1 [Example 195, (R)-5-(3-(3,3-dimethylureido)piperidin-1-yl)-3-(4-(pyrrolidine-1-carbonyl)phenylamino)pyrazine-2-carboxamide]	< 10	–	–	–
CN(C)C(=O)N[C@@H]1CCCN(c2cnc(C(N)=O)c(Nc3ccc(C(=O)Nc4ccccn4)cc3)n2)C1 [Example 196, (R)-5-(3-(3,3-dimethylureido)piperidin-1-yl)-3-(4-(pyridin-2-ylcarbamoyl)phenylamino)pyrazine-2-carboxamide]	10 to 100	–	–	–
CN(C)C(=O)N[C@@H]1CCCN(c2cnc(C(N)=O)c(Nc3ccc(C4(C(=O)N(C)C)CC4)cc3)n2)C1 [Example 202, (R)-3-(4-(1-(dimethylcarbamoyl)cyclopropyl)phenylamino)-5-(3-(3,3-dimethylureido)piperidin-1-yl)pyrazine-2-carboxamide]	< 10	–	< 10	–
CN(C)C(=O)N[C@@H]1CCCN(c2cnc(C(N)=O)c(Nc3ccc(C4(C#N)CCCC4)cc3)n2)C1 [Example 203, (R)-3-(4-(1-cyanocyclopentyl)phenylamino)-5-(3-(3,3-dimethylureido)piperidin-1-yl)pyrazine-2-carboxamide]	< 10	< 10	–	–
CN(C)C(=O)N[C@@H]1CCCN(c2cnc(C(N)=O)c(Nc3ccc(C4(CN)CCCC4)cc3)n2)C1 [Example 204, (R)-3-(4-(1-(aminomethyl)cyclopentyl)phenylamino)-5-(3-(3,3-dimethylureido)piperidin-1-yl)pyrazine-2-carboxamide]	10 to 100	–	10 to 100	–
CN(C)C(=O)N[C@@H]1CCCN(c2cnc(C(N)=O)c(Nc3ccc(N4CCN(C5CCCC5)CC4)cc3)n2)C1 [Example 215, (R)-3-(4-(4-cyclopentylpiperazin-1-yl)phenylamino)-5-(3-(3,3-dimethylureido)piperidin-1-yl)pyrazine-2-carboxamide]	< 10	–	< 10	–
CN(C)C(=O)N[C@@H]1CCCN(c2cnc(C(N)=O)c(Nc3cnn(C4CC4)c3)n2)C1 [Example 216, (R)-3-(1-cyclopropyl-1H-pyrazol-4-ylamino)-5-(3-(3,3-dimethylureido)piperidin-1-yl)pyrazine-2-carboxamide]	10 to 100	–	–	–

More lines, main results first:

IC50 [1] [nM]	IC50 (Btk (IC50)) [nM]	IC50 (read-out: Btk (IC50)) [nM]	Structure (SMILES)	IC50 [nM]
10 to 100	–	–	CN(C)C(=O)N[C@@H]1CCCN(c2cnc(C(N)=O)c(Nc3ccc(Cl)cc3)n2)C1 [Example 181, (R)-3-(4-chlorophenylamino)-5-(3-(3,3-dimethylureido)piperidin-1-yl)pyrazine-2-carboxamide]	–
< 10	–	< 10	CC(C)Oc1ccc(Nc2nc(N3CCC[C@@H](NC(=O)N(C)C)C3)cnc2C(N)=O)cc1 [Example 188, (R)-5-(3-(3,3-dimethylureido)piperidin-1-yl)-3-(4-isopropoxyphenylamino)pyrazine-2-carboxamide]	–
10 to 100	10 to 100	–	CN(C)C(=O)N[C@@H]1CCCN(c2cnc(C(N)=O)c(Nc3ccc(OC4CCCC4)cc3)n2)C1 [Example 189, (R)-3-(4-(cyclopentyloxy)phenylamino)-5-(3-(3,3-dimethylureido)piperidin-1-yl)pyrazine-2-carboxamide]	–
10 to 100	10 to 100	–	CN(C)C(=O)N[C@@H]1CCCN(c2cnc(C(N)=O)c(Nc3ccc([N+](=O)[O-])cc3)n2)C1 [Example 192, (R)-5-(3-(3,3-dimethylureido)piperidin-1-yl)-3-(4-nitrophenylamino)pyrazine-2-carboxamide]	–
10 to 100	10 to 100	–	CN(C)Cc1ccc(Nc2nc(N3CCC[C@@H](NC(=O)N(C)C)C3)cnc2C(N)=O)cc1 [Example 193, (R)-3-(4-((dimethylamino)methyl)phenylamino)-5-(3-(3,3-dimethylureido)piperidin-1-yl)pyrazine-2-carboxamide]	–
< 10	–	< 10	CN(C)C(=O)N[C@@H]1CCCN(c2cnc(C(N)=O)c(Nc3ccc(C(=O)N(C)C)cc3)n2)C1 [Example 194, (R)-3-(4-(dimethylcarbamoyl)phenylamino)-5-(3-(3,3-dimethylureido)piperidin-1-yl)pyrazine-2-carboxamide]	–
< 10	–	< 10	CN(C)C(=O)N[C@@H]1CCCN(c2cnc(C(N)=O)c(Nc3ccc(C(C)(C)C#N)cc3)n2)C1 [Example 197, (R)-3-(4-(2-cyanopropan-2-yl)phenylamino)-5-(3-(3,3-dimethylureido)piperidin-1-yl)pyrazine-2-carboxamide]	–
10 to 100	–	10 to 100	CN(C)C(=O)N[C@@H]1CCCN(c2cnc(C(N)=O)c(Nc3ccc(C(C)(C)C(N)=O)cc3)n2)C1 [Example 198, (R)-3-(4-(1-amino-2-methyl-1-oxopropan-2-yl)phenylamino)-5-(3-(3,3-dimethylureido)piperidin-1-yl)pyrazine-2-carboxamide]	–
< 10	–	< 10	CN(C)C(=O)N[C@@H]1CCCN(c2cnc(C(N)=O)c(Nc3ccc(C4(C#N)CC4)cc3)n2)C1 [Example 199, (R)-3-(4-(1-cyanocyclopropyl)phenylamino)-5-(3-(3,3-dimethylureido)piperidin-1-yl)pyrazine-2-carboxamide]	–
10 to 100	–	–	CN(C)C(=O)N[C@@H]1CCCN(c2cnc(C(N)=O)c(Nc3ccc(C4(CN)CC4)cc3)n2)C1 [Example 201, (R)-3-(4-(1-(aminomethyl)cyclopropyl)phenylamino)-5-(3-(3,3-dimethylureido)piperidin-1-yl)pyrazine-2-carboxamide]	–
10 to 100	10 to 100	–	CCN1CCC(c2ccc(Nc3nc(N4CCC[C@@H](NC(=O)N(C)C)C4)cnc3C(N)=O)cc2)CC1 [Example 207, (R)-5-(3-(3,3-dimethylureido)piperidin-1-yl)-3-(4-(1-ethylpiperidin-4-yl)phenylamino)pyrazine-2-carboxamide]	–
< 10	–	< 10	CC(C)N1CCC(c2ccc(Nc3nc(N4CCC[C@@H](NC(=O)N(C)C)C4)cnc3C(N)=O)cc2)CC1 [Example 208, (R)-5-(3-(3,3-dimethylureido)piperidin-1-yl)-3-(4-(1-isopropylpiperidin-4-yl)phenylamino)pyrazine-2-carboxamide]	–
10 to 100	–	–	CC(C)[N+]1([O-])CCC(c2ccc(Nc3nc(N4CCC[C@@H](NC(=O)N(C)C)C4)cnc3C(N)=O)cc2)CC1 (stereo partly drawn) [Example 209, (R)-4-(4-(3-carbamoyl-6-(3-(3,3-dimethylureido)piperidin-1-yl)pyrazin-2-ylamino)phenyl)-1-isopropylpiperidine 1-oxide]	–
< 10	–	< 10	CN(C)C(=O)N[C@@H]1CCCN(c2cnc(C(N)=O)c(Nc3ccc(C4CCN(C5CCCCC5)CC4)cc3)n2)C1 [Example 210, (R)-3-(4-(1-cyclohexylpiperidin-4-yl)phenylamino)-5-(3-(3,3-dimethylureido)piperidin-1-yl)pyrazine-2-carboxamide]	–
10 to 100	10 to 100	–	CN(C)C(=O)N[C@@H]1CCCN(c2cnc(C(N)=O)c(Nc3ccc(C4CCNCC4)cc3Cl)n2)C1 [Example 213, (R)-3-(2-chloro-4-(piperidin-4-yl)phenylamino)-5-(3-(3,3-dimethylureido)piperidin-1-yl)pyrazine-2-carboxamide]	–
< 10	–	< 10	CN(C)C(=O)N[C@@H]1CCCN(c2cnc(C(N)=O)c(Nc3ccc(N4CCN(C5CC5)CC4)cc3)n2)C1 [Example 214, (R)-3-(4-(4-cyclopropylpiperazin-1-yl)phenylamino)-5-(3-(3,3-dimethylureido)piperidin-1-yl)pyrazine-2-carboxamide]	–
